From patent US8119669B2, “Substituted phenoxy N-alkylated thiazolidinediones as estrogen related receptor-α modulators” (Janssen Pharmaceutica N.V., priority 2007, dated 2012) come the findings set out here.

The target of this assay is T1, ERR1 (also known as ERR-α or ERR-1) (Homo sapiens, UniProt P11474).
T1 sequence (P11474 193-421 limits assumed): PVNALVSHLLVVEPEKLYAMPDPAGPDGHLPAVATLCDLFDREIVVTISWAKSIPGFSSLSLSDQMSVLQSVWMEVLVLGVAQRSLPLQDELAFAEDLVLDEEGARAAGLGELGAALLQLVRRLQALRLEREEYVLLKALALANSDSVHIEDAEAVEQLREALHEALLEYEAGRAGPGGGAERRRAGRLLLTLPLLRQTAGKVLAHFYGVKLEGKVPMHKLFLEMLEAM
The assay is described as follows: TR-FRET Assay (disruption of co-activator peptide binding to ERR1 LBD). The note with it: 6His-tagged ERR1 LBD 6 nM, GST-hSRC2 co-activator peptide 6 nM; 25° C., 4-18 hours; average of 3 independent experiments. It counts as biochemical. The protocol:
Time-Resolved Fluorescence Resonance Energy Transfer (TR-FRET) experiments were performed to examine the functional response of ERR1 (also known as ERR-α or ERR-1) ligands. The TR-FRET assay described herein relied on the conformation of ERR1 for binding to a co-activator peptide: when a test compound binds to ERR1 and alters its conformation, it can disrupt the binding of the co-activator peptide. The components of this homogeneous secondary assay included: the ^6His-tagged-ERR1LBD, a GST-labeled-hSRC2 co-activator polypeptide and a fluorescent donor/acceptor pair from CIS bio international htrf/bioassays (Bedford, Mass.) using both an α-GST Europium Cryptate (Eu) label and an α^6His-XL665 (allophycocyanin) fluorophore.
For TR-FRET measurements, the reaction was buffered in 25 mM Tris pH 8, 2.5 mM Hepes, 20 mM KCl, 1 mM DTT, and 0.05 mg/mL BSA (-lipids). The final concentrations of reagents were 6 nM of ERR1LBD, 6 nM GST-SRC-2 peptide, 30 nM Eu cryptate, and 7.5 nM XL665. Reactions were allowed to reach equilibrium at 25° C. for 4-18 hours before collecting data on the Analyst from LJL Biosystems (Molecular Devices Sunnyvale, Calif.). As a time-resolved method, the samples were excited at […] and emission was collected for 1 ms at both 615 and 665 nm with delays of 400 and 75 μs, respectively. Dose response curves were fitted using a hyperbolic equation and the data reported is the average of 3 independent experiments.
Compound `COc1cc(/C=C2\SC(=O)N(CCN3CCOCC3)C2=O)ccc1Oc1ccc(C#N)cc1C(F)(F)F` [Compound 1, 4-{2-Methoxy-4-[3-(2-morpholin-4-yl-ethyl)-2,4-dioxo-thiazolidin-5-ylidenemethyl]-phenoxy}-3-trifluoromethyl-benzonitrile] registered an EC50 of 20 nM.
The same measure for `COc1cc(/C=C2\SC(=O)N(CCN(C)C)C2=O)ccc1Oc1ccc(C#N)cc1C(F)(F)F` [Compound 2, 4-{4-[3-(2-Dimethylamino-ethyl)-2,4-dioxo-thiazolidin-5-ylidenemethyl]-2-methoxy-phenoxy}-3-trifluoromethyl-benzonitrile]: 39 nM; for `COc1cc(/C=C2\SC(=O)N(CCN3CCCC3)C2=O)ccc1Oc1ccc(C#N)cc1C(F)(F)F` [Compound 3, 4-{4-[2,4-Dioxo-3-(2-pyrrolidin-1-yl-ethyl)-thiazolidin-5-ylidenemethyl]-2-methoxy-phenoxy}-3-trifluoromethyl-benzonitrile]: 42 nM; for `COc1cc(/C=C2\SC(=O)N(CCN3CCN(C)CC3)C2=O)ccc1Oc1ccc(C#N)cc1C(F)(F)F` [Compound 4, 4-(2-Methoxy-4-{3-[2-(4-methyl-piperazin-1-yl)-ethyl]-2,4-dioxo-thiazolidin-5-ylidenemethyl}-phenoxy)-3-trifluoromethyl-benzonitrile]: 320 nM.
As to `CN(C)CCN1C(=O)S/C(=C\c2ccc(Oc3ccc(C#N)cc3C(F)(F)F)c(F)c2)C1=O` [Compound 5, 4-{4-[3-(2-Dimethylamino-ethyl)-2,4-dioxo-thiazolidin-5-ylidenemethyl]-2-fluoro-phenoxy}-3-trifluoromethyl-benzonitrile], the EC50 was 360 nM.
The compound `N#Cc1ccc(Oc2ccc(/C=C3\SC(=O)N(CCN4CCOCC4)C3=O)cc2F)c(C(F)(F)F)c1` [Compound 6, 4-{2-Fluoro-4-[3-(2-morpholin-4-yl-ethyl)-2,4-dioxo-thiazolidin-5-ylidenemethyl]-phenoxy}-3-trifluoromethyl-benzonitrile] registered an EC50 of 320 nM.
Compound `CCN(CC)CCN1C(=O)S/C(=C\c2ccc(Oc3ccc(C#N)cc3C(F)(F)F)c(OC)c2)C1=O` [Compound 7, 4-{4-[3-(2-Diethylamino-ethyl)-2,4-dioxo-thiazolidin-5-ylidenemethyl]-2-methoxy-phenoxy}-3-trifluoromethyl-benzonitrile] displayed an EC50 of 59 nM.
For the compound `COc1cc(/C=C2\SC(=O)N(CCn3ccnc3)C2=O)ccc1Oc1ccc(C#N)cc1C(F)(F)F` [Compound 8, 4-{4-[3-(2-Imidazol-1-yl-ethyl)-2,4-dioxo-thiazolidin-5-ylidenemethyl]-2-methoxy-phenoxy}-3-trifluoromethyl-benzonitrile], a half-maximal effect (EC50) was put at 32 nM.
The same measure for `COc1cc(/C=C2\SC(=O)N(CCN3CCCCC3)C2=O)ccc1Oc1ccc(C#N)cc1C(F)(F)F` [Compound 9, 4-{4-[2,4-Dioxo-3-(2-piperidin-1-yl-ethyl)-thiazolidin-5-ylidenemethyl]-2-methoxy-phenoxy}-3-trifluoromethyl-benzonitrile]: 33 nM.
In turn, `COc1cc(/C=C2\SC(=O)N(CCn3cccn3)C2=O)ccc1Oc1ccc(C#N)cc1C(F)(F)F` [Compound 10, 4-{4-[2,4-Dioxo-3-(2-pyrazol-1-yl-ethyl)-thiazolidin-5-ylidenemethyl]-2-methoxy-phenoxy}-3-trifluoromethyl-benzonitrile] displayed an EC50 of 59 nM.
With `COc1cc(/C=C2\SC(=O)N(CCn3cncn3)C2=O)ccc1Oc1ccc(C#N)cc1C(F)(F)F` [Compound 11, 4-{4-[2,4-Dioxo-3-(2-[1,2,4]triazol-1-yl-ethyl)-thiazolidin-5-ylidenemethyl]-2-methoxy-phenoxy}-3-trifluoromethyl-benzonitrile] the figure was 24 nM.
The same measure for `COc1cc(/C=C2\SC(=O)N(CCN3CCCCCC3)C2=O)ccc1Oc1ccc(C#N)cc1C(F)(F)F` [Compound 12, 4-{4-[3-(2-Azepan-1-yl-ethyl)-2,4-dioxo-thiazolidin-5-ylidenemethyl]-2-methoxy-phenoxy}-3-trifluoromethyl-benzonitrile]: 44 nM; for `COc1cc(/C=C2\SC(=O)N(CCn3cccc3)C2=O)ccc1Oc1ccc(C#N)cc1C(F)(F)F` [Compound 13, 4-{4-[2,4-Dioxo-3-(2-pyrrol-1-yl-ethyl)-thiazolidin-5-ylidenemethyl]-2-methoxy-phenoxy}-3-trifluoromethyl-benzonitrile]: 86 nM; for `N#Cc1ccc(Oc2ccc(/C=C3\SC(=O)N(CCN4CCCC4)C3=O)cc2F)c(C(F)(F)F)c1` [Compound 14, 4-{4-[2,4-Dioxo-3-(2-pyrrolidin-1-yl-ethyl)-thiazolidin-5-ylidenemethyl]-2-fluoro-phenoxy}-3-trifluoromethyl-benzonitrile]: 230 nM.

As a reminder, the EC50 is the midpoint of the concentration-response curve. A lower EC50 goes with a more potent agent.
